Experiments:
human full length PDE3B = human full length PDE3B (Homo sapiens (Human), UniProt Q13370); test: Assay 5 PDE3B enzyme inhibition (3H-cAMP SPA); format: biochemical; details: Sf9 cell extract
In short: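 Sf9 cell extract expressing human full-length PDE3B, diluted for linear kinetics (<70% substrate use), in 50 mM Tris/HCl pH 7.5, 8.3 mM MgCl2, 1.7 mM EDTA. [8-3H]cAMP substrate, 60 min at room temperature; stopped with yttrium SPA beads, scintillation counting. IC50 from sigmoidal activity vs log concentration curves.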

SK-MEL-3 cells = test: Assay 1 cell proliferation measurement (CTG, 72 h), SK-MEL-3; format: cell-based, human; details: Homo sapiens, SK-MEL3; Assay 1, 72 h, Cell Titer Glo; read-out: SK-MEL-3 IC50 [nM] (melanoma)
In short: (§1)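 Cells were plated, grown overnight at 37 °C, then treated 72 h with a 10-step 2.5-fold dilution series from 100 nM maximum final (0.3% DMSO vehicle). Viability was read by CellTiter-Glo luminescence. IC50 from a 4-parameter fit, normalised to a 0 h plate (maximum inhibition) and DMSO control (minimum inhibition).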

human full length PDE3A = human full length PDE3A (Homo sapiens (Human), UniProt Q14432); test: Assay 4 PDE3A enzyme inhibition (3H-cAMP SPA); format: biochemical; details: Sf9 cell extract
human full length PDE3A, sequence (Q14432 whole entry): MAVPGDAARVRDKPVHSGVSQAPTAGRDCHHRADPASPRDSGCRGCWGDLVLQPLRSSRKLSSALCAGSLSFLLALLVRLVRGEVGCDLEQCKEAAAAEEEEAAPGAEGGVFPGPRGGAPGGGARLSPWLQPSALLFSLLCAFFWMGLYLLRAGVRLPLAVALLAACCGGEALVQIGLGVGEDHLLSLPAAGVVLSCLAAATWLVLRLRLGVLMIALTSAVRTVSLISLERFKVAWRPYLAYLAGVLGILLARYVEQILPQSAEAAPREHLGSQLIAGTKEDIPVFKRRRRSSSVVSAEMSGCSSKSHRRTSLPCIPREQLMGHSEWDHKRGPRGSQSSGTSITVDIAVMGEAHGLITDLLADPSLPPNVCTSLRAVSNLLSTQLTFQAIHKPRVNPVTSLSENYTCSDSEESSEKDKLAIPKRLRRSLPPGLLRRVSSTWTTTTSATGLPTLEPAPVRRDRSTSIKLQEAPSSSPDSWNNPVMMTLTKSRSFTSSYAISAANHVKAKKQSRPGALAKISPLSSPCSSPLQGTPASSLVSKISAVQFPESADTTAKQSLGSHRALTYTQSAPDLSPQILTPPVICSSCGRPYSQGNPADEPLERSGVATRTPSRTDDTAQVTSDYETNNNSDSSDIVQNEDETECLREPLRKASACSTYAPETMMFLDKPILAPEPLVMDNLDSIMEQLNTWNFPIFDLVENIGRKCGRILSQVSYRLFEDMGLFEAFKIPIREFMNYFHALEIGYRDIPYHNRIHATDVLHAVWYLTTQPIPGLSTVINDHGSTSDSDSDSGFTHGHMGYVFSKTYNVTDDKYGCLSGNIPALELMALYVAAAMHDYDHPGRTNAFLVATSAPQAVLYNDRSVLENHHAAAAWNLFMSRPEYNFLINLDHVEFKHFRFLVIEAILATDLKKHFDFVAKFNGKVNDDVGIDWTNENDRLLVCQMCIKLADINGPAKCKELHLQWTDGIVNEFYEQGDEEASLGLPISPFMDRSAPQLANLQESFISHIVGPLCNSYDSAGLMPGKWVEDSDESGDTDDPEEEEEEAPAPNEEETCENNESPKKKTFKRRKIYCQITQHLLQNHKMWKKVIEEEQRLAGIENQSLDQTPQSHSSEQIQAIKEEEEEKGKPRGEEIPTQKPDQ
In short: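 Hydrolysis of [8-3H]cAMP by Sf9-expressed full-length PDE3A was measured by scintillation proximity, with enzyme diluted to keep kinetics linear and substrate consumption below 70%. Incubation ran 60 min at room temperature at pH 7.5.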

HeLa cells = test: Assay 1 cell proliferation measurement (CTG, 72 h), HeLa; format: cell-based, human; details: Homo sapiens, HeLa; Assay 1, 72 h, Cell Titer Glo; read-out: HeLa IC50 [nM] (Cervical cancer)
In short: as §1

human full length PDE3B, sequence (Q13370 whole entry): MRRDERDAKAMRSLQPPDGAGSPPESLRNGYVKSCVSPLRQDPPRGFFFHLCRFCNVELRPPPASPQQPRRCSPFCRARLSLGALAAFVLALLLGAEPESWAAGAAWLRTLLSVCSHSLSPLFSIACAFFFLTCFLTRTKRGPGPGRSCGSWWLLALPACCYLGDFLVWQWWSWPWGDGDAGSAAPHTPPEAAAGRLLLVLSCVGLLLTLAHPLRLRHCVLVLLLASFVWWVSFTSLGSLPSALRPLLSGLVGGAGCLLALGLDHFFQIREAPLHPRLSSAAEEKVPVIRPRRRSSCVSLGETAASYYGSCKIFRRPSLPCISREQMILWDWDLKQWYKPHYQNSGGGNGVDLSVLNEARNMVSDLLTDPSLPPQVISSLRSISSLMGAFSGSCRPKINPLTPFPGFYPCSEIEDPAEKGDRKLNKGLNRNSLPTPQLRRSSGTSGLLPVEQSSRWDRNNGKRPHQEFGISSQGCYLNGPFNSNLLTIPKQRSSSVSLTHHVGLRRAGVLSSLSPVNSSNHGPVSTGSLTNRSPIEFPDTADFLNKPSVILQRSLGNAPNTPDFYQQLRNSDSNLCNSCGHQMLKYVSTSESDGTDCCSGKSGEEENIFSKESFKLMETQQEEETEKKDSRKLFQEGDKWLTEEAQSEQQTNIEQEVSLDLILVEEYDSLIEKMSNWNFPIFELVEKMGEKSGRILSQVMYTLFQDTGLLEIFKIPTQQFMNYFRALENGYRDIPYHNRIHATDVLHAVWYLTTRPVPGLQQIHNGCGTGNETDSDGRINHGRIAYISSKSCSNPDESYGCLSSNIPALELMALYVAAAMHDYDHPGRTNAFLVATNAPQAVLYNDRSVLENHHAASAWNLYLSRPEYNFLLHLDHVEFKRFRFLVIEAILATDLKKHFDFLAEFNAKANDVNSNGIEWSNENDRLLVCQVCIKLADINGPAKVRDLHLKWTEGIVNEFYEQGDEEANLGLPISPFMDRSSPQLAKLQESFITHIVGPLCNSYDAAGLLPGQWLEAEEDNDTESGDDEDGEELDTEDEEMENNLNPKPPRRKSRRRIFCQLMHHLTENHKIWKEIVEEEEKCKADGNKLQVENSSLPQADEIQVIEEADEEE

IC50 (human full length PDE3B) [nM] | IC50 (SK-MEL-3 cells) [nM] | IC50 (human full length PDE3A) [nM] | IC50 (HeLa cells) [nM] | SMILES
110 | 17 | 92 | 9 | O=C1NN=C(c2ccc(-c3ccccc3F)c(C(F)(F)F)c2)CO1 [Example 155, 5-[2′-Fluoro-2-(trifluoromethyl)[1,1′-biphenyl]-4-yl]-3,6-dihydro-2H-1,3,4-oxadiazin-2-one]
650 | 68 | 440 | 55 | O=C1NN=C(c2ccc(-c3ccc(C(F)(F)F)s3)c(C(F)(F)F)c2)CO1 [Example 156, 5-{3-(Trifluoromethyl)-4-[5-(trifluoromethyl)thiophen-2-yl]phenyl}-3,6-dihydro-2H-1,3,4-oxadiazin-2-one]
> 1000 | 71 | > 1000 | 44 | Cc1ccc(-c2ccc(C3=NNC(=O)OC3)cc2C(F)(F)F)nc1 [Example 157, 5-[4-(5-Methylpyridin-2-yl)-3-(trifluoromethyl)phenyl]-3,6-dihydro-2H-1,3,4-oxadiazin-2-one]
720 | 40 | 500 | 22 | O=C1NN=C(c2ccc(-c3ccc(F)cn3)c(C(F)(F)F)c2)CO1 [Example 158, 5-[4-(5-Fluoropyridin-2-yl)-3-(trifluoromethyl)phenyl]-3,6-dihydro-2H-1,3,4-oxadiazin-2-one]
> 1000 | 22 | > 1000 | 11 | O=C1NN=C(c2ccc(-c3ccc(Cl)cn3)c(C(F)(F)F)c2)CO1 [Example 159, 5-[4-(5-Chloropyridin-2-yl)-3-(trifluoromethyl)phenyl]-3,6-dihydro-2H-1,3,4-oxadiazin-2-one]
> 1000 | 47 | > 1000 | 27 | O=C1NN=C(c2ccc(-c3ccccn3)c(C(F)(F)F)c2)CO1 [Example 160, 5-[4-(Pyridin-2-yl)-3-(trifluoromethyl)phenyl]-3,6-dihydro-2H-1,3,4-oxadiazin-2-one]
51 | 14 | 35 | 8 | Cc1cc(C#N)ccc1-c1ccc(C2=NNC(=O)OC2)cc1F [Example 163, 2′-Fluoro-2-methyl-4′-(2-oxo-3,6-dihydro-2H-1,3,4-oxadiazin-5-yl)[1,1′-biphenyl]-4-carbonitrile]
200 | 8 | 300 | 6 | CC(C)=Cc1ccc(C2=NNC(=O)OC2)cc1OC(F)(F)F [Example 164, 5-[4-(2-Methylprop-1-en-1-yl)-3-(trifluoromethoxy)phenyl]-3,6-dihydro-2H-1,3,4-oxadiazin-2-one]
66 | 6 | 34 | 4 | Cc1ccc(-c2ccc(C3=NNC(=O)O[C@H]3C)cc2C(F)(F)F)cn1 [Example 167, (6S)-6-Methyl-5-[4-(6-methylpyridin-3-yl)-3-(trifluoromethyl)phenyl]-3,6-dihydro-2H-1,3,4-oxadiazin-2-one]
220 | 25 | 170 | 14 | Cc1ccc(-c2ccc(C3=NNC(=O)O[C@H]3C)cc2C(F)(F)F)c(F)c1 [Example 168, (6S)-5-[2′-Fluoro-4′-methyl-2-(trifluoromethyl)[1,1′-biphenyl]-4-yl]-6-methyl-3,6-dihydro-2H-1,3,4-oxadiazin-2-one]
240 | 32 | 180 | 20 | C[C@@H]1OC(=O)NN=C1c1ccc(-c2cc(F)c(F)cc2F)c(C(F)(F)F)c1 [Example 169, (6S)-6-Methyl-5-[2′,4′,5′-trifluoro-2-(trifluoromethyl)[1,1′-biphenyl]-4-yl]-3,6-dihydro-2H-1,3,4-oxadiazin-2-one]
180 | 40 | 190 | 27 | C[C@@H]1OC(=O)NN=C1c1ccc(-c2ccc(F)c(F)c2F)c(C(F)(F)F)c1 [Example 170, (6S)-6-Methyl-5-[2′,3′,4′-trifluoro-2-(trifluoromethyl)[1,1′-biphenyl]-4-yl]-3,6-dihydro-2H-1,3,4-oxadiazin-2-one]
210 | 31 | 150 | 18 | C[C@@H]1OC(=O)NN=C1c1ccc(-c2cc(F)ccc2F)c(C(F)(F)F)c1 [Example 171, (6S)-5-[2′,5′-Difluoro-2-(trifluoromethyl)[1,1′-biphenyl]-4-yl]-6-methyl-3,6-dihydro-2H-1,3,4-oxadiazin-2-one]
520 | 48 | 290 | 37 | C[C@@H]1OC(=O)NN=C1c1ccc(-c2ccccc2C#N)c(C(F)(F)F)c1 [Example 172, 4′-[(6S)-6-Methyl-2-oxo-3,6-dihydro-2H-1,3,4-oxadiazin-5-yl]-2′-(trifluoromethyl)[1,1′-biphenyl]-2-carbonitrile]
58 | 27 | 58 | 15 | C[C@@H]1OC(=O)NN=C1c1ccc(-c2ccc3[nH]ccc3c2)c(C(F)(F)F)c1 [Example 173, (6S)-5-[4-(1H-Indol-5-yl)-3-(trifluoromethyl)phenyl]-6-methyl-3,6-dihydro-2H-1,3,4-oxadiazin-2-one]
24 | 3 | 26 | 6 | C[C@@H]1OC(=O)NN=C1c1ccc(-c2cccc(O)c2)c(C(F)(F)F)c1 [Example 175, (6S)-5-[3′-Hydroxy-2-(trifluoromethyl)[1,1′-biphenyl]-4-yl]-6-methyl-3,6-dihydro-2H-1,3,4-oxadiazin-2-one]
35 | 4 | 37 | 2 | C[C@@H]1OC(=O)NN=C1c1ccc(-c2cccc(N)c2)c(C(F)(F)F)c1 [Example 176, (6S)-5-[3′-Amino-2-(trifluoromethyl)[1,1′-biphenyl]-4-yl]-6-methyl-3,6-dihydro-2H-1,3,4-oxadiazin-2-one]
130 | 17 | 160 | 12 | C[C@@H]1OC(=O)NN=C1c1ccc(-c2ccc(F)cc2F)c(C(F)(F)F)c1 [Example 177, (6S)-5-[2′,4′-Difluoro-2-(trifluoromethyl)[1,1′-biphenyl]-4-yl]-6-methyl-3,6-dihydro-2H-1,3,4-oxadiazin-2-one]
130 | 19 | 140 | 13 | Cc1ccc(-c2ccc(C3=NNC(=O)O[C@H]3C)cc2C(F)(F)F)cc1F [Example 178, (6S)-5-[3′-Fluoro-4′-methyl-2-(trifluoromethyl)[1,1′-biphenyl]-4-yl]-6-methyl-3,6-dihydro-2H-1,3,4-oxadiazin-2-one]
110 | 15 | 140 | 8 | C[C@@H]1OC(=O)NN=C1c1ccc(-c2ccccc2F)c(C(F)(F)F)c1 [Example 179, (6S)-5-[2′-Fluoro-2-(trifluoromethyl)[1,1′-biphenyl]-4-yl]-6-methyl-3,6-dihydro-2H-1,3,4-oxadiazin-2-one]
250 | 48 | 250 | 36 | COc1ccccc1-c1ccc(C2=NNC(=O)O[C@H]2C)cc1C(F)(F)F [Example 180, (6S)-5-[2′-Methoxy-2-(trifluoromethyl)[1,1′-biphenyl]-4-yl]-6-methyl-3,6-dihydro-2H-1,3,4-oxadiazin-2-one]
77 | 6 | 74 | 3 | C[C@@H]1OC(=O)NN=C1c1ccc(-c2cccc(F)c2)c(C(F)(F)F)c1 [Example 181, (6S)-5-[3′-Fluoro-2-(trifluoromethyl)[1,1′-biphenyl]-4-yl]-6-methyl-3,6-dihydro-2H-1,3,4-oxadiazin-2-one]
260 | 54 | 220 | 39 | Cc1ccncc1-c1ccc(C2=NNC(=O)O[C@H]2C)cc1C(F)(F)F [Example 182, (6S)-6-Methyl-5-[4-(4-methylpyridin-3-yl)-3-(trifluoromethyl)phenyl]-3,6-dihydro-2H-1,3,4-oxadiazin-2-one]
170 | 22 | 200 | 15 | Cc1cnccc1-c1ccc(C2=NNC(=O)O[C@H]2C)cc1C(F)(F)F [Example 183, (6S)-6-Methyl-5-[4-(3-methylpyridin-4-yl)-3-(trifluoromethyl)phenyl]-3,6-dihydro-2H-1,3,4-oxadiazin-2-one]
57 | 6 | 66 | 5 | Cc1cc(-c2ccc(C3=NNC(=O)O[C@H]3C)cc2C(F)(F)F)ccn1 [Example 184, (6S)-6-Methyl-5-[4-(2-methylpyridin-4-yl)-3-(trifluoromethyl)phenyl]-3,6-dihydro-2H-1,3,4-oxadiazin-2-one]
48 | 6 | 49 | 4 | C[C@@H]1OC(=O)NN=C1c1ccc(-c2ccc3cc[nH]c3c2)c(C(F)(F)F)c1 [Example 185, (6S)-5-[4-(1H-Indol-6-yl)-3-(trifluoromethyl)phenyl]-6-methyl-3,6-dihydro-2H-1,3,4-oxadiazin-2-one]
